# Measurements reported in US4298690A, “Antibiotics XK-62-3 and XK-62-4 and process for production thereof” (Kyowa Hakko Kogyo Co., Ltd., priority 1977, dated 1981).
# Where a name gives a salt, the structure may show the parent alone.
# Key:
# [1] = test system: Bacillus subtilis No. 10707; assay: MIC by agar dilution method at pH 8.0, Bacillus subtilis No. 10707; assay type: cell-based; conditions: read-out: Minimum Inhibitory Concentration
# From the text: (§1) Table 4 illustrates the antibacterial spectra of XK-62-3 and XK-62-4 against various microorganisms.
# (§2) (Minimum Inhibitory Concentration, γ/ml
# (§3) measured by agar dilution method at pH 8.0)
# [2] = test system: Staphylococcus aureus ATCC 6538P; assay: MIC by agar dilution method at pH 8.0, Staphylococcus aureus ATCC 6538P; assay type: cell-based; conditions: ATCC6538P, read-out: Minimum Inhibitory Concentration
# From the text: as §1, §2, §3
# [3] = test system: Klebsiella pneumoniae ATCC 10031; assay: MIC by agar dilution method at pH 8.0, Klebsiella pneumoniae ATCC 10031; assay type: cell-based; conditions: ATCC10031, read-out: Minimum Inhibitory Concentration
# From the text: as §1, §2, §3
# [4] = test system: Klebsiella pneumoniae KY 4261; assay: MIC by agar dilution method at pH 8.0, Klebsiella pneumoniae KY 4261; assay type: cell-based; conditions: KY4261, read-out: Minimum Inhibitory Concentration
# From the text: as §1, §2, §3
# Escherichia coli ATCC 26 = assay: MIC by agar dilution method at pH 8.0, Escherichia coli ATCC 26; assay type: cell-based; conditions: ATCC26, read-out: Minimum Inhibitory Concentration
# From the text: as §1, §2, §3
# Escherichia coli KY 8310 = assay: MIC by agar dilution method at pH 8.0, Escherichia coli KY 8310; assay type: cell-based; conditions: KY8310, read-out: Minimum Inhibitory Concentration
# From the text: as §1, §2, §3
# Escherichia coli KY 8327 = assay: MIC by agar dilution method at pH 8.0, Escherichia coli KY 8327; assay type: cell-based; conditions: KY8327, pH 8, read-out: Minimum Inhibitory Concentration
# From the text: as §1, §2, §3
# Escherichia coli KY 8348 = assay: MIC by agar dilution method at pH 8.0, Escherichia coli KY 8348; assay type: cell-based; conditions: KY8348, Escherichia coli KY 8348, resistant to gentamicin, AAC(3)-I, read-out: Minimum Inhibitory Concentration
# From the text: as §1, §2, §3
# Escherichia coli KY 8356 = assay: MIC by agar dilution method at pH 8.0, Escherichia coli KY 8356; assay type: cell-based; conditions: KY8356, read-out: Minimum Inhibitory Concentration
# From the text: as §1, §2, §3
# [5] = test system: Pseudomonas aeruginosa BMH No. 1; assay: MIC by agar dilution method at pH 8.0, Pseudomonas aeruginosa BMH No. 1; assay type: cell-based; conditions: BMHNO.1, read-out: Minimum Inhibitory Concentration
# From the text: as §1, §2, §3
# [6] = test system: Pseudomonas aeruginosa KY 8563; assay: MIC by agar dilution method at pH 8.0, Pseudomonas aeruginosa KY 8563; assay type: cell-based; conditions: KY8563, Pseudomonas aeruginosa KY 8563, resistant to gentamicin, AAC(3)-II, read-out: Minimum Inhibitory Concentration
# From the text: as §1, §2, §3
# [7] = test system: Pseudomonas aeruginosa KY 8511; assay: MIC by agar dilution method at pH 8.0, Pseudomonas aeruginosa KY 8511; assay type: cell-based; conditions: KY8511, Pseudomonas aeruginosa KY 8511, resistant to gentamicin, AAC(3)-I, read-out: Minimum Inhibitory Concentration
# From the text: as §1, §2, §3
# [8] = test system: Pseudomonas aeruginosa Z 444; assay: MIC by agar dilution method at pH 8.0, Pseudomonas aeruginosa Z 444; assay type: cell-based; conditions: Z444, Pseudomonas aeruginosa Z 444, resistant to gentamicin, AAC(6')-III, read-out: Minimum Inhibitory Concentration
# From the text: as §1, §2, §3
# [9] = test system: Proteus vulgaris ATCC 6897; assay: MIC by agar dilution method at pH 8.0, Proteus vulgaris ATCC 6897; assay type: cell-based; conditions: ATCC6897, read-out: Minimum Inhibitory Concentration
# From the text: as §1, §2, §3
# [10] = test system: Shigella sonnei ATCC 9290; assay: MIC by agar dilution method at pH 8.0, Shigella sonnei ATCC 9290; assay type: cell-based; conditions: ATCC9290, read-out: Minimum Inhibitory Concentration
# From the text: as §1, §2, §3
# [11] = test system: Salmonella typhosa ATCC 9992; assay: MIC by agar dilution method at pH 8.0, Salmonella typhosa ATCC 9992; assay type: cell-based; conditions: Salmonella enterica, pH 8, read-out: Minimum Inhibitory Concentration
# From the text: as §1, §2, §3
# [12] = test system: Serratia marcescens KY 4248; assay: MIC by agar dilution method at pH 8.0, Serratia marcescens KY 4248; assay type: cell-based; conditions: KY4248, read-out: Minimum Inhibitory Concentration
# From the text: as §1, §2, §3
# Providenicia sp. KY 8464 = assay: MIC by agar dilution method at pH 8.0, Providenicia sp. KY 8464; assay type: cell-based; conditions: read-out: Minimum Inhibitory Concentration
# From the text: as §1, §2, §3
# [13] = Acute toxicity in dd-mice; conditions: mouse, in vivo
# [14] = Solubility of the free base; assay type: physicochemical; conditions: for solubility in organic solvents: chloroform, benzene, ethyl acetate, butyl acetate, ether, butanol, petroleum ether, n-hexane
# [15] = test system: Bacillus subtilis No. 10707; assay: Activity (units) of purified preparate; assay type: cell-based; conditions: for activity: per mg not given, Examples 2D, 3, 4
# Procedure: The activity of the eluate is determined against Bacillus subtilis No. 10707 by a paper disk method using an agar plate. Active fractions are combined and concentrated in vacuo to about 3 L. The concentrate is adjusted to pH 8.0 with 6 N sulfuric acid and passed through a column packed with 3 L of an anion exchange resin, Dowex 1×2 (OH^- form). The column is washed with about 20 L of water and active principles are eluted with 1 N aqueous ammonia. The active fractions are combined and concentrated to 1/10 by volume. The pH of the concentrate is adjusted to 10.5 with 6 N sodium hydroxide and 4 volumes of acetone is added thereto. The resulting precipitate is removed by filtration and the acetone layer is concentrated to 2 L. The concentrate is adjusted to pH 4.5 with 6 N sulfuric acid and then 10 L of methanol is added thereto. After cooling, a white precipitate is obtained. The precipitate is separated by filtration and washed with methanol. After drying in vacuo, about 250 g of white powder (sulfate form) is obtained.
# The residue is dissolved in a small amount of water and the solution is freeze-dried to obtain about 1.5 g of purified preparate of the free base of XK-62-3.
# The residue is dissolved in a small amount of water and the solution is freeze-dried to obtain about 2.2 g of purified preparate of the free base of XK-62-4.
# After the completion of fermentation, the culture liquor is adjusted to pH 2.0 with 12 N sulfuric acid and stirred for 30 minutes. Then, about 20 kg of Radiolite No. 600 (filter aid) is added thereto and the microbial cells are removed by filtration. The filtrate is adjusted to pH 8.0 with 6 N sodium hydroxide and passed through a column packed with 100 L of a cation exchange resin, Amberlite IRC-50 (NH4^+ form). After washing the resin with water, the active substances are eluted out with 1 N aqueous ammonia. The eluate is obtained in fractions and the activity of each of the fractions is determined against Bacillus subtilis No. 10707 by a paper disc method using an agar plate. The eluate is concentrated to 2 L under reduced pressure. The concentrate is adjusted to pH 4.5 with 6 N sulfuric acid and the resulting insoluble substance is removed by filtration. To the filtrate 20 L of methanol is added to form a white precipitate. The precipitate is separated by filtration and washed with methanol. After drying in vacuo, 500 g of white powder, of a crude XK-62 series (sulfate form) is obtained.
# [16] = test system: Gram-positive and Gram-negative bacteria; assay: Antibacterial activity against a broad range of bacteria (in words); assay type: cell-based
# From the text: as §1, §2, §3
# [17] = test system: resistant strains of Escherichia coli and Pseudomonas aeruginosa (3-N-acetylation, 2"-adenylation); assay: Antibacterial activity against resistant strains with 3-N-acetylation, 2"-adenylation (in words); assay type: cell-based; conditions: E. coli and P. aeruginosa resistant by 3-N-acetylation, etc.
# From the text: as §1, §2, §3
# Escherichia coli KY 8332 = assay: MIC by agar dilution method at pH 8.0, Escherichia coli KY 8332; assay type: cell-based; conditions: KY8332, Escherichia coli KY 8332, resistant to kanamycin, AAC(6')-I, read-out: Minimum Inhibitory Concentration
# From the text: as §1, §2, §3
# [18] = test system: Pseudomonas aeruginosa Z 445; assay: MIC by agar dilution method at pH 8.0, Pseudomonas aeruginosa Z 445; assay type: cell-based; conditions: Z445, Pseudomonas aeruginosa Z 445, resistant to gentamicin, AAC(6')-III, read-out: Minimum Inhibitory Concentration
# From the text: as §1, §2, §3
# [19] = test system: resistant strains of Escherichia coli and Pseudomonas aeruginosa (6'-N-acetylation); assay: Antibacterial activity against resistant strains with 6'-N-acetylation (in words); assay type: cell-based; conditions: E. coli and P. aeruginosa resistant by 6'-N-acetylation, etc.
# From the text: as §1, §2, §3
# [20] = test system: resistant strains of Escherichia coli and Pseudomonas aeruginosa (6'-N-acetylation); conditions: strains with 6'-N-acetylation, etc.; known antibiotics; cited from earlier work
# [21] = test system: resistant strains of Escherichia coli and Pseudomonas aeruginosa (3-N-acetylation, 2"-adenylation); conditions: strains with 3-N-acetylation, etc., known antibiotics; cited from earlier work
# [22] = free base, Example 1, 1 mg of pure preparate corresponds to 1000 units
smiles,measurement,setting,value
CNC1CC(N)C(OC2OCC(C)(O)C(NC)C2O)C(O)C1OC1OC(CN)CCC1N (stereo not shown) [XK-62-3],MIC,[1],< 0.0011 µg/mL
same,MIC,[2],0.0021 µg/mL
same,MIC,[3],0.0082 µg/mL
same,MIC,[4],0.066 µg/mL
same,MIC,Escherichia coli ATCC 26,0.066 µg/mL
same,MIC,Escherichia coli KY 8310,0.066 µg/mL
same,MIC,Escherichia coli KY 8327,0.066 µg/mL
same,MIC,Escherichia coli KY 8348,0.033 µg/mL
same,MIC,Escherichia coli KY 8356,0.26 µg/mL
same,MIC,[5],0.26 µg/mL
same,MIC,[6],0.25 µg/mL
same,MIC,[7],0.26 µg/mL
same,MIC,[8],> 10 µg/mL
same,MIC,[9],0.26 µg/mL
same,MIC,[10],0.13 µg/mL
same,MIC,[11],0.033 µg/mL
same,MIC,[12],1.52 µg/mL
same,MIC,Providenicia sp. KY 8464,1.04 µg/mL
same,LD50,[13],106 mg/kg
same,solubility in organic solvents,[14],insoluble
same,solubility in ethanol and acetone,[14],slightly soluble
same,solubility in methanol,[14],soluble
same,solubility in water,[14],very soluble
same,activity of purified preparate,[15]; Example 2,970 units/mg
same,activity of purified preparate,[15]; [22],about 985 unit/mg
same,antibacterial activity,[16],very strong antibacterial activity
same,antibacterial activity against certain resistant strains,[17],strong antibacterial activity
CNC1C(O)C(OC2C(N)CC(N)C(OC3OC(CN(C)C)CCC3N)C2O)OCC1(C)O (stereo not shown) [XK-62-4],MIC,[1],< 0.0011 µg/mL
same,MIC,[2],0.0021 µg/mL
same,MIC,[3],0.0082 µg/mL
same,MIC,[4],0.066 µg/mL
same,MIC,Escherichia coli ATCC 26,0.033 µg/mL
same,MIC,Escherichia coli KY 8310,0.066 µg/mL
same,MIC,Escherichia coli KY 8332,0.033 µg/mL
same,MIC,[5],0.26 µg/mL
same,MIC,[6],> 10 µg/mL
same,MIC,[8],0.26 µg/mL
same,MIC,[18],0.26 µg/mL
same,MIC,[9],0.13 µg/mL
same,MIC,[10],0.066 µg/mL
same,MIC,[11],0.011 µg/mL
same,MIC,[12],0.26 µg/mL
same,LD50,[13],25.9 mg/kg
same,solubility in organic solvents,[14],insoluble
same,solubility in ethanol and acetone,[14],slightly soluble
same,solubility in methanol,[14],soluble
same,solubility in water,[14],very soluble
same,activity of purified preparate,[15]; [22],about 980 unit/mg
same,activity,[15],970 units
same,antibacterial activity,[16],very strong antibacterial activity
same,antibacterial activity against certain resistant strains,[19],strong antibacterial activity
"NC[C@@H]1CC[C@@H](N)[C@@H](O[C@H]2[C@H](O)[C@@H](O[C@H]3O[C@H](CO)[C@@H](O)[C@H](N)[C@H]3O)[C@H](N)C[C@@H]2N)O1 [dibekacin, 3,4-dideoxy kanamycin B]",effect on resistant strains,[20],ineffective
NCC1OC(OC2C(N)CC(N)C(OC3OC(CO)C(O)C(N)C3O)C2O)C(O)C(O)C1O (stereo not shown) [kanamycin A],effect on resistant strains,[20],ineffective
NC[C@H]1O[C@H](O[C@H]2[C@H](O)[C@@H](O[C@H]3O[C@H](CO)[C@@H](O)[C@H](N)[C@H]3O)[C@H](N)C[C@@H]2N)[C@H](O)[C@@H](O)[C@@H]1O [kanamycin],effect on resistant strains,[21],ineffective
CNCC1CCC(N)C(OC2C(N)CC(N)C(OC3OCC(C)(O)C(NC)C3O)C2O)O1 (stereo not shown) [sagamicin (antibiotic XK-62-2)],effect on resistant strains,[21],ineffective
CN[C@@H]1[C@@H](O)[C@@H](O[C@@H]2[C@@H](O)[C@H](O[C@H]3OC(CN)=CC[C@H]3N)[C@@H](N)C[C@H]2N)OC[C@]1(C)O [sisomicin],effect on resistant strains,[20],ineffective
CNC1CC(N)C(OC2OCC(C)(O)C(NC)C2O)C(O)C1OC1OC(CN)CCC1N (stereo not shown) [sulfate salt of XK-62-3],activity,[15],about 630 units
CNC1C(O)C(OC2C(N)CC(N)C(OC3OC(CN(C)C)CCC3N)C2O)OCC1(C)O (stereo not shown) [sulfate salt of XK-62-4],activity,[15],about 625 units
